ChEMBL document CHEMBL1133414, “Bifunctional alkylating agents derived from duocarmycin SA: potent antitumor activity with altered sequence selectivity” (Bioorg Med Chem Lett, 2000)

System: L1210
Test: In vitro cytotoxicity against L1210 cell line
Assay type: functional, cell-based
Details: Mus musculus

Row | SMILES | IC50 [pM]
1 | COC(=O)c1cc2c([nH]1)C(=O)C=C1N(C(=O)c3cc4cc(OC)c(OC)c(OC)c4[nH]3)C[C@@H]3C[C@@]123 | 100
2 | COC(=O)c1cc2c([nH]1)C(=O)C=C1N(C(=O)c3cc4c([nH]3)C(=O)C=C3N(C(=O)OC(C)(C)C)C[C@H]5C[C@]345)C[C@@H]3C[C@@]123 | 40
3 | COC(=O)c1cc2c([nH]1)C(=O)C=C1N(C(=O)c3cc4c([nH]3)C(=O)C=C3N(C(=O)OC(C)(C)C)C[C@@H]5C[C@@]345)C[C@@H]3C[C@@]123 | 50
4 | COC(=O)c1cc2c([nH]1)C(=O)C=C1N(C(=O)c3cc4c([nH]3)C(=O)C=C3N(C(=O)OC(C)(C)C)C[C@H]5C[C@]345)C[C@H]3C[C@]123 | 3
5 | COC(=O)c1cc2c([nH]1)C(=O)C=C1N(C(=O)c3cc4c([nH]3)C(=O)C=C3N(C(=O)OC(C)(C)C)C[C@@H]5C[C@@]345)C[C@H]3C[C@]123 (mixture of isomers) | 5
6 | COC(=O)c1cc2c([nH]1)C(=O)C=C1N(C(=O)c3cc4cc(OC)c(OC)c(OC)c4[nH]3)C[C@H]3C[C@]123 [DUOCARMYCIN] | 10
